20 molecules from patent publication US20260242391A1 (priority 2023, published 2026) can be followed below.

One data set can be described thus: in vitro. To be noted: human.
In another data set the test system is HL-60. In words: HL-60 differentiation potency. It is filed as cell-based. To be noted: Homo sapiens.

Each structure is given as a SMILES string.

Regarding `C[C@H]1[C@@H](OCC2CCC(C(=O)O)O2)O[C@@H]2O[C@@]3(C)CC[C@H]4[C@H](C)CC[C@@H]1[C@@]24OO3` (stereo partly drawn) [Compound 209, 5-((((3R,5aS,6R,8aS, 9R,10S,12R, 12aR)-3,6,9-trimethyldeca-hydro-12H-3,12-epoxy[1,2]dioxepino[4,3-i]isochromen-10-yl)oxy)methyl) tetrahydrofuran-2-carboxylic acid], in “in vitro”, the IC50 (in general, the concentration that gives 50% inhibition) is above 20000 nM. A half-maximal effect in the data set on HL-60 (EC50) was put at 15800 nM.

With `C[C@H]1[C@@H](OCC2(O)CCC(C(=O)O)CC2)O[C@@H]2O[C@@]3(C)CC[C@H]4[C@H](C)CC[C@@H]1[C@@]24OO3` (stereo partly drawn) [Compound 211, 4-hydroxy-4-((((3R,5aS,6R,8aS, 9R,10S,12R, 12aR)-3,6,9-trimethyldeca-hydro-12H-3,12-epoxy[1,2]dioxepino[4,3-i]isochromen-10-yl)oxy)methyl) cyclohexane-1-carboxylic acid], in the data set “in vitro”, the concentration for half-maximal inhibition (IC50) was above 20000 nM. The EC50 (usually the concentration at which the effect is half-maximal) with HL-60 was found to be 11400 nM.

Regarding `C[C@H]1[C@@H](Oc2ccc(CC(=O)N[C@@H]3CC[C@H](C(=O)O)C3)cc2)O[C@@H]2O[C@@]3(C)CC[C@H]4[C@H](C)CC[C@@H]1[C@@]24OO3` [Compound 289, (1S,3R)-3-(2-(4-(((3R,5aS,6R,8aS, 9R,10S,12R, 12aR)-3,6,9-trimethyldeca-hydro-12H-3,12-epoxy[1,2]dioxepino[4,3-i]isochromen-10-yl)oxy)phenyl)acetamido) cyclopentane-1-carboxylic acid], in the data set “in vitro”, the IC50 was above 20000 nM. Moreover, the EC50 in the data set with HL-60 worked out at 27.6 nM.

In the data set “in vitro” (HL-60 cells), `C[C@H]1[C@@H](O[C@H]2C[C@@H](C(=O)N[C@H]3CC[C@@H](C(=O)O)C3)C2)O[C@@H]2O[C@@]3(C)CC[C@H]4[C@H](C)CC[C@@H]1[C@@]24OO3` [Compound 201, (1R,3S)-3-((1R,3R)-3-(((3R,5aS,6R,8aS, 9R,10S,12R, 12aR)-3,6,9-trimethyldeca-hydro-12H-3,12-epoxy[1,2]dioxepino[4,3-i]isochromen-10-yl)oxy)cyclo-butane-1-carboxamido) cyclopentane-1-carboxylic acid] showed an IC50 above 20000 nM. Also, in the data set on HL-60, it took 6730 nM to reach a half-maximal effect (EC50).

Molecule `C[C@H]1[C@@H](O[C@H]2C[C@@H](C(=O)NC34C5C6C3C3C4C5C63C(=O)O)C2)O[C@@H]2O[C@@]3(C)CC[C@H]4[C@H](C)CC[C@@H]1[C@@]24OO3` (stereo partly drawn) [Compound 255, 4-((1R,3s)-3-(((3R,5aS,6R,8aS, 9R,10S,12R, 12aR)-3,6,9-trimethyldeca-hydro-12H-3,12-epoxy[1,2]dioxepino[4,3-i]isochromen-10-yl)oxy)cyclo-butane-1-carboxamido) cubane-1-carboxylic acid] registered an IC50 in “in vitro” above 20000 nM. In the data set on HL-60, this molecule had an EC50 of 2320 nM.

In turn, `C[C@H]1[C@@H](Oc2ccc(C(=O)Nc3ccc(C(=O)O)cc3)cc2)O[C@@H]2O[C@@]3(C)CC[C@H]4[C@H](C)CC[C@@H]1[C@@]24OO3` [Compound 246, 4-(4-(((3R,5aS,6R,8aS, 9R,10S,12R, 12aR)-3,6,9-trimethyldeca-hydro-12H-3,12-epoxy[1,2]dioxepino[4,3-i]isochromen-10-yl)oxy)benzamido) benzoic acid] returned an IC50 in “in vitro” of 40 nM. Further, the EC50 with HL-60 was determined as 15.8 nM.

In the data set “in vitro”, `C[C@H]1[C@@H](OCc2ccc(C(=O)N[C@@H]3CCC[C@@H](C(=O)O)C3)cc2)O[C@@H]2O[C@@]3(C)CC[C@H]4[C@H](C)CC[C@@H]1[C@@]24OO3` [Compound 290, (1R,3R)-3-(4-((((3R,5aS,6R,8aS, 9R,10S,12R, 12aR)-3,6,9-trimethyldeca-hydro-12H-3,12-epoxy[1,2]dioxepino[4,3-i]isochromen-10-yl)oxy)methyl)benzamido) cyclohexane-1-carboxylic acid] came in with an IC50 of 11300 nM. The molecule also displayed an EC50 in the data set on HL-60 of 83.4 nM.

Regarding `C[C@H]1[C@@H](OCc2c(Cl)cc(C(=O)O)cc2S(C)(=O)=O)O[C@@H]2O[C@@]3(C)CC[C@H]4[C@H](C)CC[C@@H]1[C@@]24OO3` [Compound 216, 3-chloro-5-(methylsulfonyl)-4-((((3R,5aS,6R,8aS, 9R,10S,12R, 12aR)-3,6,9-trimethyldeca-hydro-12H-3,12-epoxy[1,2]dioxepino[4,3-i]isochromen-10-yl)oxy)methyl) benzoic acid], the 50% inhibitory concentration (IC50) in the data set “in vitro” is above 20000 nM. In addition, in the data set on HL-60, the EC50 came to 7180 nM.

In “in vitro”, `CC(C)C(C(=O)O)c1ccc(O[C@H]2O[C@@H]3O[C@@]4(C)CC[C@H]5[C@H](C)CC[C@@H]([C@H]2C)[C@@]35OO4)c(F)c1` (stereo partly drawn) [Compound 266, 2-(3-fluoro-4-(((3R,5aS,6R,8aS, 9R,10S,12R, 12aR)-3,6,9-trimethyldeca-hydro-12H-3,12-epoxy[1,2]dioxepino[4,3-i]isochromen-10-yl)oxy)phenyl)-3-methylbutanoic acid] registered an IC50 of 60 nM. Also, the EC50 in the data set with HL-60 was found to be 10.3 nM.

Take `C[C@H]1[C@@H](Oc2ccc(C(=O)N3CC(C(=O)O)C3)cc2Cl)O[C@@H]2O[C@@]3(C)CC[C@H]4[C@H](C)CC[C@@H]1[C@@]24OO3` [Compound 244, 1-(3-chloro-4-(((3R,5aS,6R,8aS, 9R,10S,12R, 12aR)-3,6,9-trimethyldeca-hydro-12H-3,12-epoxy[1,2]dioxepino[4,3-i]isochromen-10-yl)oxy)benzoyl) azetidine-3-carboxylic acid]: in “in vitro”, the IC50 was determined as 2460 nM. Besides, a half-maximal response in the data set with HL-60 (EC50) required 101 nM.

`C[C@H]1[C@@H](OC[C@H]2CC[C@@H](C(=O)N[C@H](C(=O)O)C(C)(C)C)CC2)O[C@@H]2O[C@@]3(C)CC[C@H]4[C@H](C)CC[C@@H]1[C@@]24OO3` [Compound 242, (S)-3,3-dimethyl-2-((1R,4R)-4-((((3R,5aS,6R,8aS, 9R,10S,12R, 12aR)-3,6,9-trimethyldeca-hydro-12H-3,12-epoxy[1,2]dioxepino[4,3-i]isochromen-10-yl)oxy)methyl)cyclohexane-1-carboxamido) butanoic acid]: the IC50 in “in vitro” amounted to 1270 nM. In addition, the 50% effective concentration (EC50) in the data set with HL-60 is 21.3 nM.

In turn, `C[C@H]1[C@@H](OCC(=O)N[C@H](C(=O)O)C(C)(C)C)O[C@@H]2O[C@@]3(C)CC[C@H]4[C@H](C)CC[C@@H]1[C@@]24OO3` [Compound 188, (S)-3,3-dimethyl-2-(2-(((3R,5aS,6R, 8aS,9R,10S,12R, 12aR)-3,6,9-trimethyldeca-hydro-12H-3,12-epoxy[1,2]dioxepino[4,3-i]isochromen-10-yl)oxy)acetamido) butanoic acid] came in with a half-inhibitory concentration (IC50) in the data set “in vitro” above 20000 nM. In the data set with HL-60, the EC50 was 5060 nM.

`C[C@H]1[C@@H](Oc2c(F)cc(OCC(=O)O)cc2F)O[C@@H]2O[C@@]3(C)CC[C@H]4[C@H](C)CC[C@@H]1[C@@]24OO3` [Compound 238, 2-(3,5-difluoro-4-(((3R,5aS,6R,8aS, 9R,10S,12R, 12aR)-3,6,9-trimethyldeca-hydro-12H-3,12-epoxy[1,2]dioxepino[4,3-i]isochromen-10-yl)oxy)phenoxy) acetic acid] had an IC50 in the data set “in vitro” of 6910 nM. Further, it took 71.3 nM to reach a half-maximal effect in the data set on HL-60 (EC50).

In “in vitro”, `C[C@H]1[C@@H](OCc2ccc(-c3nnc(CC(=O)O)o3)cc2)O[C@@H]2O[C@@]3(C)CC[C@H]4[C@H](C)CC[C@@H]1[C@@]24OO3` [Compound 304, 2-(5-(4-((((3R,5aS,6R,8aS, 9R,10S,12R, 12aR)-3,6,9-trimethyldeca-hydro-12H-3,12-epoxy[1,2]dioxepino[4,3-i]isochromen-10-yl)oxy)methyl)phenyl)-1,3,4-oxadiazol-2-yl)acetic acid] registered an IC50 of 30 nM. In the data set with HL-60, this molecule had an EC50 of 11.2 nM.

`C[C@@H]1CC[C@H]2[C@@H](C)[C@](OCc3ccc(C(=O)O)cc3Cl)(C(F)(F)F)O[C@@H]3O[C@@]4(C)CC[C@@H]1[C@]32OO4` [Compound 196] had an IC50 in the data set “in vitro” of 30 nM. The molecule further gave an EC50 in the data set on HL-60 of 10.3 nM.

As to `C[C@H]1[C@@H](OCc2ccc(C(=O)N[C@H]3CC[C@@H](C(=O)O)C3)cc2)O[C@@H]2O[C@@]3(C)CC[C@H]4[C@H](C)CC[C@@H]1[C@@]24OO3` [Compound 275, (1R,3S)-3-(4-((((3R,5aS,6R,8aS, 9R,10S,12R, 12aR)-3,6,9-trimethyldeca-hydro-12H-3,12-epoxy[1,2]dioxepino[4,3-i]isochromen-10-yl)oxy)methyl)benzamido) cyclopentane-1-carboxylic acid], the half-inhibitory concentration (IC50) in the data set “in vitro” amounted to 6800 nM. The EC50 in the data set with HL-60 is 240 nM.

In turn, `CC(C(=O)N[C@H]1CC[C@@H](C(=O)O)C1)c1ccc(O[C@H]2O[C@@H]3O[C@@]4(C)CC[C@H]5[C@H](C)CC[C@@H]([C@H]2C)[C@@]35OO4)c(F)c1` (stereo partly drawn) [Compound 306, (1R,3S)-3-(2-(3-fluoro-4-(((3R,5aS,6R,8aS, 9R,10S,12R, 12aR)-3,6,9-trimethyldeca-hydro-12H-3,12-epoxy[1,2]dioxepino[4,3-i]isochromen-10-yl)oxy)phenyl)propanamido) cyclopentane-1-carboxylic acid] registered an IC50 in the data set “in vitro” of 690 nM. The EC50 with HL-60 turned out to be 13.3 nM.

Molecule `C[C@H]1[C@@H](OC[C@H]2CC[C@@H](C(=O)N[C@@H](CC(F)(F)F)C(=O)O)CC2)O[C@@H]2O[C@@]3(C)CC[C@H]4[C@H](C)CC[C@@H]1[C@@]24OO3` [Compound 256, (S)-4,4,4-trifluro-2-((1R,4R)-4-((((3R,5aS,6R,8aS, 9R,10S,12R, 12aR)-3,6,9-trimethyldeca-hydro-12H-3,12-epoxy[1,2]dioxepino[4,3-i]isochromen-10-yl)oxy)methyl)cyclohexane-1-carboxamido) butanoic acid] showed an IC50 in the data set “in vitro” of 15300 nM. Besides, a half-maximal effect in the data set on HL-60 (EC50) was put at 3070 nM.

`C[C@H]1[C@@H](Oc2ccc(C(=O)N3[C@H](C(=O)O)C[C@@H]4C[C@@H]43)cc2)O[C@@H]2O[C@@]3(C)CC[C@H]4[C@H](C)CC[C@@H]1[C@@]24OO3` [Compound 258, (1S,3S,5S)-2-(4-(((3R,5aS,6R,8aS, 9R,10S,12R, 12aR)-3,6,9-trimethyldeca-hydro-12H-3,12-epoxy[1,2]dioxepino[4,3-i]isochromen-10-yl)oxy)benzoyl)-2-azabicyclo [3.1.0]hexane-3-carboxylic acid]: in “in vitro”, the IC50 was above 20000 nM. The EC50 with HL-60 is above 20000 nM.

As for `CO[C@H](C)[C@H](NC(=O)c1ccc(O[C@H]2O[C@@H]3O[C@@]4(C)CC[C@H]5[C@H](C)CC[C@@H]([C@H]2C)[C@@]35OO4)cc1)C(=O)O` [Compound 248, O-methyl-N-(4-(((3R,5aS,6R,8aS, 9R,10S,12R, 12aR)-3,6,9-trimethyldeca-hydro-12H-3,12-epoxy[1,2]dioxepino[4,3-i]isochromen-10-yl)oxy)benzoyl)-L-threonine], in the data set “in vitro”, the IC50 was above 20000 nM. The molecule also came in with an EC50 in the data set with HL-60 of 412 nM.
